Our source for the IC50 values is US12172983B2, “EGFR inhibitors” (Blueprint Medicines Corporation, priority 2019, dated 2024).

Molecules are shown by their SMILES. Where two headings read alike, the source gives them in different places.

In assay [1] the test system is phosphorylation of EGFR (Tyr1068) in NCI-H1975 cell line that harbors the EGFR L858R T790M mutations. The assay is described as follows: NCI-H1975 pEGFR AlphaLISA assay. Format: cell-based. Conditions: 4-5 hours incubation, read-out: Ext pEGFR H1975. Put shortly:
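NCI-H1975 cells (EGFR L858R/T790M) seeded overnight, then treated with compound for 4-5 h at 37 °C/5% CO2. After lysis, p-EGFR (Tyr1068) quantified by AlphaLISA SureFire Ultra with acceptor then donor beads; IC50 fitted from percent inhibition versus log concentration.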

Assay [2] has as its system pEGFR_LR/TM/G796S mutant EGFR expressing Ba/F3 cells. The experiment in a line: pEGFR_LR/TM/G796S AlphaLISA assay in Ba/F3 cells. Format: cell-based. Conditions: Mus musculus, BaF3, 4 hrs incubation, geometric mean, read-out: Ext pEGFR_LR/TM/G796S GMean IC50. Here is the method: Mutant EGFR expressing Ba/F3 cells were resuspended in fresh 10% FBS RPMI and plated at 1.0×10^6 cells/mL. On the next day, the cells were harvested and diluted in fresh medium at 1.25×10^6 cells/mL. 40 μL of cells were added to each well of a 384-well microplate (Corning 3764). In a clear 384-well polypropylene microplate, test compounds and DMSO were added. DMSO was a negative control and staurosporine was a positive control. The cell plate was placed in a humidified 37° C. incubator for 4 hrs. The cell plate was spun to pellet the cells and the media was removed. 10 μL of 1×AlphaLISA Lysis Buffer with 1× protease and phosphatase inhibitors was added to the cells and plate was shaken at 600 rpm for 30 min. The cell lysates were transferred from cell plate to a white opaque 384-well microplate (OptiPlate-384). 5 μL of acceptor mix was added to the cell lysate and the plate was shaken at 600 rpm for 10 min, gently tapped and sealed with foil. It was then incubated at RT for 1.5-2 hr. Under low light conditions, lx donor mix was prepared right prior to use. 5 μL of donor mix was added to the plate under subdued lighting or green filters. The plate was shaken at 600 rpm for 10 min, gently tapped and sealed with foil. It was then incubated overnight at RT in dark. After overnight incubation, the plate was read on an EnVision Multilabel Reader. All IC50 representative curves were plotted using GraphPad Prism (version 8.00 for Windows, GraphPad Software, San Diego California USA). The percentage of inhibition on EGFR phosphorylation was calculated following equation below: […]
An IC50 was calculated by fitting the curve using Nonliner fit with log(inhibitor) vs. response−Variable slope (four parameters) model.
A general note: In Alpha technology, singlet oxygen from a donor bead excites a nearby acceptor bead.

In the next assay the target is T1, EGFR (L858R T790M C797S) (Homo sapiens, UniProt P00533, C797S/L858R/T790M).
T1 construct: purchased SignalChem E10-122VG
T1 sequence (P00533 25-1210 T790M/C797S/L858R): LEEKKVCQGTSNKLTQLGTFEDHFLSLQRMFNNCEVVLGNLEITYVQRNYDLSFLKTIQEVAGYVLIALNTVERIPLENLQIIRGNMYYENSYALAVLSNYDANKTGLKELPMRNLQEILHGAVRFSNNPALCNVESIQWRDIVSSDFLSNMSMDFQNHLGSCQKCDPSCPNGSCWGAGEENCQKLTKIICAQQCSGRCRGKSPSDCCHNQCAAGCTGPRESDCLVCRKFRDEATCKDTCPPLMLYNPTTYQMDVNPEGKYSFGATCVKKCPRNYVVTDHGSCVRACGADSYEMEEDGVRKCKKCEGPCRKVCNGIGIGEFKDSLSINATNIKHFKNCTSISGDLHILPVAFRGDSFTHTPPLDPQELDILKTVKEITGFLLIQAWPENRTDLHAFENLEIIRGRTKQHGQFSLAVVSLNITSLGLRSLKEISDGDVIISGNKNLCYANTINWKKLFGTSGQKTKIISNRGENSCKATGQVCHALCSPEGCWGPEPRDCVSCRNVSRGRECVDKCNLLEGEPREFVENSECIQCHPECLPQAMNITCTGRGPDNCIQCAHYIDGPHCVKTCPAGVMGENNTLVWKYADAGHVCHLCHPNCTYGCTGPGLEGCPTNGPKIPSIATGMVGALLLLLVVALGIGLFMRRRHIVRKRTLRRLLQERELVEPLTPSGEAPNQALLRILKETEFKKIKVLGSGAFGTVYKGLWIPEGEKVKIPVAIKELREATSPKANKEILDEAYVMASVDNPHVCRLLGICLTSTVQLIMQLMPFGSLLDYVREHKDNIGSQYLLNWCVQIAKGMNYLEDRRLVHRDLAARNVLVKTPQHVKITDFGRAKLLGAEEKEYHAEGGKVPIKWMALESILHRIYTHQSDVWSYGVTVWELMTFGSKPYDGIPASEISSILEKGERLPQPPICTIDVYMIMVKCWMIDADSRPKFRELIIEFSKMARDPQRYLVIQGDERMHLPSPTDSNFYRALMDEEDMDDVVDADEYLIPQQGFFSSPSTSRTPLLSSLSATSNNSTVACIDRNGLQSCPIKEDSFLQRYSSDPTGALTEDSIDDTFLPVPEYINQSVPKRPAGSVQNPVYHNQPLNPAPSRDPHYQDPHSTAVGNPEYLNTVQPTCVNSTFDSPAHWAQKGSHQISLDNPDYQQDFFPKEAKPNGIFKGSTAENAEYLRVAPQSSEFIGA
The experiment in a line: Biochemical EGFR inhibition assay (Caliper mobility shift), EGFR LRTMCS mutant. The note with it: inhibitory activity against EGFR LRTMCS mutant; apparent IC50; read-out: Ext Enz LRTMCS. The procedure, abridged: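 Caliper mobility shift read-out: product and substrate peptides separated by electrophoresis and quantified. Reactions at 25° C. taken to 10–20% peptide phosphorylation, quenched with 35 mM EDTA. Apparent IC50 from percent activity vs log [compound].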

The mark [3] stands for this setting: Homo sapiens, NCI-H1975, inhibition of phosphorylation of mutant EGFR in NCI-H1975 cells.

With `[2H]C([2H])([2H])O[C@@H]1CCN(c2nccc(Nc3cc4c(C(C)C)ccc(N5C[C@H](CS(C)(=O)=O)[C@H]5C)c4cn3)n2)C[C@@H]1F` (single isomer, unassigned) [Compound 282], the IC50 was at most 10 nM in assay [1] (setting [3]) and 20.1 to 100 nM in assay [2].
As for `CC(C)c1ccc(N2C[C@H](CS(C)(=O)=O)[C@H]2C)c2cnc(Nc3ccnc(N4CC[C@@](C)(O)[C@@H](F)C4)n3)cc12` (single isomer, unassigned) [Compound 117], the IC50 in assay [1] (setting [3]) is at most 10 nM; on EGFR (L858R T790M C797S) it was at most 15 nM; in assay [2], 250 to 750 nM.
As for `CC(C)c1ccc(N2C[C@H](CS(C)(=O)=O)[C@H]2C)c2cnc(Nc3ccnc(N4CC[C@@H](O)[C@@](C)(F)C4)n3)cc12` (single isomer, unassigned) [Compound 111], the IC50 in assay [1] (setting [3]) was at most 10 nM; in assay [2], 20.1 to 100 nM.
Take `CC(C)c1ccc(N2C[C@H](CS(C)(=O)=O)[C@H]2C)c2cnc(Nc3ccnc(N4CC[C@](C)(O)[C@H](F)C4)n3)cc12` (single isomer, unassigned) [Compound 118]: the IC50 in assay [1] (setting [3]) is at most 10 nM; at EGFR (L858R T790M C797S), at most 15 nM; in assay [2], 250 to 750 nM.
Take `CC(C)c1ccc(N2CC(CS(C)(=O)=O)C2)c2cnc(Nc3ccnc(N4CC[C@@H](O)[C@@](C)(F)C4)n3)cc12` (single isomer, unassigned) [Compound 55]: the figures for the IC50 in assay [1] (setting [3]) and in assay [2] were at most 10 nM and at most 20 nM, respectively.
The like results for `[2H]C([2H])([2H])O[C@H]1CCN(c2nccc(Nc3cc4c(C(C)C)ccc(N5C[C@H](CS(C)(=O)=O)[C@H]5C)c4cn3)n2)C[C@H]1F` (single isomer, unassigned) [Compound 283] were, in that order, at most 10 nM and 20.1 to 100 nM.
In the case of `CCc1cnc(N2CC(CS(C)(=O)=O)C2)c2cnc(Nc3ccnc(N4CC[C@@H](O)[C@@](C)(F)C4)n3)cc12` (single isomer, unassigned) [Compound 31], the IC50 in assay [1] (setting [3]) is 10.1 to 20 nM; on EGFR (L858R T790M C797S) it was at most 15 nM.
Regarding `C[C@@H]1[C@@H](CS(C)(=O)=O)CN1c1ccc(C2CC2)c2cc(Nc3ccnc(N4CC[C@@H](O)[C@@](C)(F)C4)n3)ncc12` (single isomer, unassigned) [Compound 90], the IC50 in assay [1] (setting [3]) is at most 10 nM; at EGFR (L858R T790M C797S), at most 15 nM.
For `CCS(=O)(=O)CC1CN(c2ccc(C(C)C)c3cc(Nc4cnnc(N5CC[C@H](OC)[C@H](F)C5)n4)ncc23)C1` [Compound 281, 8-{3-[(ethanesulfonyl)methyl]azetidin-1-yl}-N-{3-[(3R,4S)-3-fluoro-4-methoxypiperidin-1-yl]-1,2,4-triazin-5-yl}-5-(propan-2-yl)isoquinolin-3-amine] the same measures were at most 10 nM and at most 15 nM.
As to `CCS(=O)(=O)C[C@H]1CN(c2ccc(C(C)C)c3cc(Nc4ccnc(N5CC[C@@H](OC)[C@@H](O)C5)n4)ncc23)[C@@H]1C` (single isomer, unassigned) [Compound 176, (3S,4R)-1-[4-({8-[(2R,3S)-3-[(ethanesulfonyl)methyl]-2-methylazetidin-1-yl]-5-(propan-2-yl)isoquinolin-3-yl}amino)pyrimidin-2-yl]-4-methoxypiperidin-3-ol, or (3R,4S)-1-[4-({8-[(2R,3S)-3-[(ethanesulfonyl)methyl]-2-methylazetidin-1-yl]-5-(propan-2-yl)isoquinolin-3-yl}amino)pyrimidin-2-yl]-4-methoxypiperidin-3-ol], the IC50 in assay [1] (setting [3]) was at most 10 nM; at EGFR (L858R T790M C797S) it was at most 15 nM.
As to `COCCO[C@@H]1CCN(c2nccc(Nc3cc4c(C(C)C)ccc(N5CC(CS(C)(=O)=O)C5)c4cn3)n2)C[C@H]1O` (racemic) [Compound 227, (3S,4S)-1-[4-[[5-isopropyl-8-[3-(methylsulfonylmethyl)azetidin-1-yl]-3-isoquinolyl]amino]pyrimidin-2-yl]-4-(2-methoxyethoxy)piperidin-3-ol or (3R,4R)-1-[4-[[5-isopropyl-8-[3-(methylsulfonylmethyl)azetidin-1-yl]-3-isoquinolyl]amino]pyrimidin-2-yl]-4-(2-methoxyethoxy)piperidin-3-ol], the IC50 in assay [1] (setting [3]) was in the range of 30.1 to 50 nM; at EGFR (L858R T790M C797S), 20.1 to 30 nM.
On to `CNCCO[C@@H]1CCN(c2nccc(Nc3cc4c(C(C)C)ccc(N5C[C@H](CS(C)(=O)=O)[C@H]5C)c4cn3)n2)CC1(F)F` (single isomer, unassigned) [Compound 301, N-{2-[(4S)-3,3-difluoro-4-[2-(methylamino)ethoxy]piperidin-1-yl]pyrimidin-4-yl}-8-[(2R,3S)-3-(methanesulfonylmethyl)-2-methylazetidin-1-yl]-5-(propan-2-yl)isoquinolin-3-amine or N-{2-[(4R)-3,3-difluoro-4-[2-(methylamino)ethoxy]piperidin-1-yl]pyrimidin-4-yl}-8-[(2R,3S)-3-(methanesulfonylmethyl)-2-methylazetidin-1-yl]-5-(propan-2-yl)isoquinolin-3-amine], for which the IC50 in assay [1] (inhibition of phosphorylation of mutant EGFR in NCI-H1975 cells) is at most 10 nM; on EGFR (L858R T790M C797S) it was at most 15 nM.
Regarding `CC(C)c1ccc(N2CC(CS(C)(=O)=O)C2)c2cnc(Nc3ccnc(N4CC[C@](C)(O)C(F)(F)C4)n3)cc12` (single isomer, unassigned) [Compound 153, (4S)-3,3-difluoro-1-[4-({8-[3-(methanesulfonylmethyl)azetidin-1-yl]-5-(propan-2-yl)isoquinolin-3-yl}amino)pyrimidin-2-yl]-4-methylpiperidin-4-ol or (4R)-3,3-difluoro-1-[4-({8-[3-(methanesulfonylmethyl)azetidin-1-yl]-5-(propan-2-yl)isoquinolin-3-yl}amino)pyrimidin-2-yl]-4-methylpiperidin-4-ol], the results for the IC50 (in assay [1] (setting [3]); at EGFR (L858R T790M C797S)) were 10.1 to 20 nM and at most 15 nM, respectively.
For the compound `CC(C)c1ccc(N2C[C@H](CS(C)(=O)=O)[C@H]2C)c2cnc(Nc3ccnc(N4CC[C@H](OCC(C)(C)O)[C@H](F)C4)n3)cc12` [Compound 255, 1-{[(3R,4S)-3-fluoro-1-[4-({8-[(2R,3S)-3-(methanesulfonylmethyl)-2-methylazetidin-1-yl]-5-(propan-2-yl)isoquinolin-3-yl}amino)pyrimidin-2-yl]piperidin-4-yl]oxy}-2-methylpropan-2-ol], the results for the IC50 (in assay [1] (setting [3]); on EGFR (L858R T790M C797S)) were at most 10 nM and 20.1 to 30 nM, respectively.
Regarding `[2H]C([2H])([2H])O[C@H]1CCN(c2nccc(Nc3cc4c(C(C)C)ccc(N5CC(CS(C)(=O)=O)C5)c4cn3)n2)C[C@H]1F` (single isomer, unassigned) [Compound 81], the IC50 is at most 10 nM in assay [1] (setting [3]) and at most 15 nM at EGFR (L858R T790M C797S).
For `CC(C)c1ccc(N2CC(CS(C)(=O)=O)C2)c2cnc(Nc3ccnc(N4CC(C)(C)[C@H](O)C(F)(F)C4)n3)cc12` (single isomer, unassigned) [Compound 213, (4S)-3,3-difluoro-1-[4-({8-[3-(methanesulfonylmethyl)azetidin-1-yl]-5-(propan-2-yl)isoquinolin-3-yl}amino)pyrimidin-2-yl]-5,5-dimethylpiperidin-4-ol or (4R)-3,3-difluoro-1-[4-({8-[3-(methanesulfonylmethyl)azetidin-1-yl]-5-(propan-2-yl)isoquinolin-3-yl}amino)pyrimidin-2-yl]-5,5-dimethylpiperidin-4-ol], the IC50 is at most 10 nM in assay [1] (setting [3]) and at most 15 nM at EGFR (L858R T790M C797S).
On to `CO[C@H]1CCN(c2nncc(Nc3cc4c(C(C)C)ccc(N5C[C@H](CS(C)(=O)=O)[C@H]5C)c4cn3)n2)C[C@H]1F` [Compound 133, N-{3-[(3R,4S)-3-fluoro-4-methoxypiperidin-1-yl]-1,2,4-triazin-5-yl}-8-[(2R,3S)-3-(methanesulfonylmethyl)-2-methylazetidin-1-yl]-5-(propan-2-yl)isoquinolin-3-amine], for which the IC50 is at most 10 nM in assay [1] (setting [3]) and at most 15 nM at EGFR (L858R T790M C797S).
